Data on one sequence can be found in paper PMC7997369, “Assessment of the Multifunctional Behavior of Lupin Peptide P7 and Its Metabolite Using an Integrated Strategy” (Journal of Agricultural and Food Chemistry, 2020).

pIC50: −log10 of the molar value. No end group written: not given here.

The experiment has as its target angiotensin-converting enzyme (ACE) (Homo sapiens, UniProt P12821). Nature of the experiment: Cellular ACE inhibitory assay in undifferentiated intestinal Caco-2 cells. Type of experiment: cell-based. More on the design: endogenous in cells; host or cells: Caco-2 cells (INSERM, Paris). The settings on record: Caco-2 cells treated 24 h at 37 °C with P7 0.1–250 μM; ACE activity in cell lysates, fluorescent Abz substrate; mean ± sd of three independent experiments in triplicate. On the procedure: HK-2 cells from the American Type Culture Collection (ATCC) were cultured using Dulbecco’s modified Eagle’s medium–F12 (DMEM–F12) containing 25 mM glucose, 4 mM stable L-glutamine, 100 units […] penicillin, and 100 μg […] streptomycin, supplemented with 10% heat-inactivated fetal bovine serum (FBS, Hyclone Laboratories, Logan, UT, U.S.A.). […]
For the experiments, HK-2 and Caco-2 cells were seeded on 96-well plates at a density of 5 × 10^4 cells/well for 24 h. […] Total proteins were quantified by the Bradford method, and 2 μL of the supernatant (the equivalent of 2 μg of total proteins) was added to 18 μL of ACE1 lysis buffer in each well in a black 96-well plate with a clear bottom. […] Then, 20 μL of diluted ACE1 substrate [o-aminobenzoyl peptide (Abz-based peptide) substrate, 4% of ACE1 substrate in the assay buffer] was added in each well, except the background well, and the fluorescence (excitation/emission of 330/430 nm) was measured in a kinetic mode for 10 min at 37 °C.

angiotensin-converting enzyme (ACE), sequence (P12821 30-1306): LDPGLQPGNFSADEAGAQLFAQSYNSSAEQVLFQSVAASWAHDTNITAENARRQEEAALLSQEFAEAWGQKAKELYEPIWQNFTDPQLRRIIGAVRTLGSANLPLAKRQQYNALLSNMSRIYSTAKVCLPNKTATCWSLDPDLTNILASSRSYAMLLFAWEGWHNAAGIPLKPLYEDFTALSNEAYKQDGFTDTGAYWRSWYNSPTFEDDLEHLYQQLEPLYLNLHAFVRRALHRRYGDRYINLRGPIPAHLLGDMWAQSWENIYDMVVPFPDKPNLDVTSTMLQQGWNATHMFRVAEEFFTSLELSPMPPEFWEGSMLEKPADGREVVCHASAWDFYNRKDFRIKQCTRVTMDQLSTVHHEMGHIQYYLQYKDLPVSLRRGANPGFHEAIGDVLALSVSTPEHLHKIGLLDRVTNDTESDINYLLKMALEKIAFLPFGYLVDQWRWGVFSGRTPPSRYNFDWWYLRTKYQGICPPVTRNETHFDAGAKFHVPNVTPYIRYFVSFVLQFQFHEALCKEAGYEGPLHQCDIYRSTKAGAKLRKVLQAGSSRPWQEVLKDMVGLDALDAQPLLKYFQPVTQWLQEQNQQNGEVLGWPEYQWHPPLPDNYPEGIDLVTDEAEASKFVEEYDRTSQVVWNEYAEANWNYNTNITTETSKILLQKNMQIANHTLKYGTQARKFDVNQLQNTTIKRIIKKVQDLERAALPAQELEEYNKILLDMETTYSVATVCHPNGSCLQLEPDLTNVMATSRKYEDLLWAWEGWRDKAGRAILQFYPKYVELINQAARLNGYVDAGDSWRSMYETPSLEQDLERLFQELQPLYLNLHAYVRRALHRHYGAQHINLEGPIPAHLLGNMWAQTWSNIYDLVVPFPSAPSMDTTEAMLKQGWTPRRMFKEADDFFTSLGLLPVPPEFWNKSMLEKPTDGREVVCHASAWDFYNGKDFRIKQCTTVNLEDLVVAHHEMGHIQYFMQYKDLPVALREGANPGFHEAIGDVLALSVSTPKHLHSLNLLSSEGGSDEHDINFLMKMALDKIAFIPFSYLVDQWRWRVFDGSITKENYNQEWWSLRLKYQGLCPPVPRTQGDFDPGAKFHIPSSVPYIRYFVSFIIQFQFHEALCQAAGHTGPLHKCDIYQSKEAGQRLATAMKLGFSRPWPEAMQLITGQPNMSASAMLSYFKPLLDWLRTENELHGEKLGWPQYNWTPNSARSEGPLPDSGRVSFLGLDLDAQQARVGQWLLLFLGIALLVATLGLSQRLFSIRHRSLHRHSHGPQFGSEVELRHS

In the case of LTFPGSAED [P7], the negative-log IC50 (pIC50) (as a rule, −log10 of the IC50, conventionally taken in molar units) is 4.86.
